How the values were obtained:
[1] = test system: vessel network model formed by culturing adult stem cells and vascular endothlial cells together; test: Formation of vessel network in vitro (adult stem cells co-cultured with vascular endothlial cells); format: cell-based, human; conditions: for lengths of the formed vessel networks (Total Tube Length, TL): co-culture six days
Protocol: First, we constructed a vessel network model formed by culturing adult stem cells and vascular endothlial cells together. Adult stem cells have the function of differentiating into pericytes, and can secrete cytokines required for angiogenesis to promote the formation of new vessels. The isolated and cultured adult stem cells were cultured using EGM medium for 3-6 generations to be used. The isolated and cultured human endothlial cells were derived from the cord blood of healthy infants (38-40 weeks), in which monocytes were removed by gradient centrifugation, and the cells were cultured in EGM medium to obtain primary vascular endothlial cells, and 4-8 generations were applied after passage. The adult stem cells were implanted into a cell culture dish, maintaining cell density of 6×10^6/cm^2, and the vascular endothlial cells were implanted on the trophoblast cells of the adult stem cells after the adult stem cells were incubated at 37° C., 5% CO2 for 3 hours, and the cell density of the vascular endothlial cells reached 1×10^6/cm^2. The two kinds of cells were co-cultured for six days, then the formation of tubular networks was observed, and the new vessel networks were labeled through CD31 fluorescence staining and horseradish peroxidase staining.
Different doses of 3,4-diacetyl phenethyl caffeate (prepared according to conventional chemical method by the Laboratory of Peking University Health Science center) were co-cultured with the in vitro vessel network system. […] However, there is no significant difference among the total numbers of ECs of CD31+ in respective groups. The total numbers of ECs in the control group, DMSO group, 5 μm group, 10 μm group, 20 μm group, 50 μm group and 100 μm group are 7.52±1.24/mm^2, 8.66±1.31/mm^2, 8.87±1.59/mm^2, 6.0±1.72/mm^2, 6.22±1.42/mm^2, […], 8.33±0.79/mm^2 respectively, and there is no significant difference among respective groups through analysis.

[2] = test system: angiogenesis model by culturing stromal cells and vascular endothlial cells (ECs) together; test: Tumor angiogenesis mediated by pericytes (stromal cells co-cultured with vascular endothlial cells); format: cell-based; conditions: for Length of the formed vessel network (Total Tube Length, TL, n = 8): control 436; for effect on tumor angiogenesis mediated by pericytes: concentrations of 50-100 μM, result in words
Protocol: We constructed an angiogenesis model by culturing stromal cells and vascular endothlial cells (ECs) together. Stromal cells and endothlial cells were graciously provided by Vascular Biology Medical Center of Medical School of the State University in Indiana. The stromal cells were implanted into a cell culture dish, maintaining cell density of 6×10^6/cm^2, and ECs were implanted on the trophoblast cells of the stromal cells after the stromal cells were incubated in the EBM-2/5% FBS culture medium for 3 hours, with cell density of ECs reaching 1×10^6/cm^2. The two kinds of cells were co-cultured in EBM-2/5% FBS culture medium for six days, then the formation of tubular vessels was observed, and EC vessels were labeled through CD31 fluorescence staining and horseradish peroxidase staining.
Then, the inhibition of compounds phenethyl caffeate and 3,4-diacetyl phenethyl caffeate with concentrations of 50-100 μM on tumor angiogenesis mediated by pericytes was studied.

[3] = test system: human hepatocellular carcinoma BEL-7402 cell lines; test: Growth of tumors of BALB/c nude mice inoculated with BEL-7402 cells in vivo; conditions: 20 mg/kg by gavage, 3 weeks
Protocol: First, 1×10^6 cells of human hepatocellular carcinoma BEL-7402 cell lines were injected subcutaneously (sc) into the forelimbs of BALB/c male nude mice, and the mice with tumor were killed after the tumor was formed, the skin of the mice was cut off, and the complete tumor tissue was separated and removed, and then immersed into physiological saline and cut into pieces with diameter of 2 mm. The tumor tissue pieces were implanted subcutaneously into the forelimbs of nude mice in another group for drug experiments. The nude mice with tumor were randomly divided equally into an experimental group and control group, with 10 mice in each group. […] Experimental data, such as tumor size (i.e., long diameter a and short diameter b), experimental animal weight (g), etc., were recorded regularly, and photographs were taken. Measurement result was recorded every time, and the tumor volume and the ratio of tumor volume to tumor weight were calculated for each animal based on the measurement results.
Formula for calculating the tumor volume is: v=a×b2/2 (a represents the long diameter of the tumor and b represents the short diameter of the tumor, which are in unit of mm; and V is calculated in unit of mm^3). […]

**Q.** What does the source list for `CC(=O)Oc1ccc(/C=C/C(=O)OCCc2ccccc2)cc1OC(C)=O` [3,4-diacetyl phenethyl caffeate]?
**A.** numbers of branchs (NB) of the vessels ([1]; 50 μM group): 0.13±0.026 /mm^2; lengths of the formed vessel networks (Total Tube Length, TL) ([1]; 50 μM group): 0.084±0.032 mm/mm^2; numbers of branchs (NB) of the vessels ([1]; 5 μm group): 6.12±0.48 /mm^2; total numbers of ECs (CD31+) ([1]; 5 μm group): 8.87±1.59 /mm^2; lengths of the formed vessel networks (Total Tube Length, TL) ([1]; 5 μm group): 2.802±0.212 mm/mm^2; numbers of branchs (NB) of the vessels ([1]; 10 μm group): 1.55±0.17 /mm^2; total numbers of ECs (CD31+) ([1]; 10 μm group): 6.0±1.72 /mm^2; lengths of the formed vessel networks (Total Tube Length, TL) ([1]; 10 μm group): 0.874±0.117 mm/mm^2; numbers of branchs (NB) of the vessels ([1]; 20 μm group): 0.50±0.063 /mm^2; total numbers of ECs (CD31+) ([1]; 20 μm group): 6.22±1.42 /mm^2; lengths of the formed vessel networks (Total Tube Length, TL) ([1]; 20 μm group): 0.337±0.89 mm/mm^2; numbers of branchs (NB) of the vessels ([1]; 100 μm group): 0.04±0.001 /mm^2; total numbers of ECs (CD31+) ([1]; 100 μm group): 8.33±0.79 /mm^2; lengths of the formed vessel networks (Total Tube Length, TL) ([1]; 100 μm group): 0.0054±0.002 mm/mm^2; effect on the formation of vessel networks in vitro ([1]; result in words): inhibitory effect; Length of the formed vessel network (Total Tube Length, TL, n = 8) ([2]; 50 μM): 114 ± 20; Length of the formed vessel network (Total Tube Length, TL, n = 8) ([2]; 100 μM): 20 ± 11; effect on tumor angiogenesis mediated by pericytes [2]: inhibitory effect; effect on tumor angiogenesis mediated by pericytes ([2]; listed as diacetyl phenethyl caffeate): significant inhibitory effect; effect on the growth of tumors ([3]; result in words): inhibitory effect; average tumor volume of the mice ([3]; six days every week, FIG. 2): maintained at the original level, with no significant changes

**Q.** Which results are given for `O=C(/C=C/c1ccc(O)c(O)c1)OCCc1ccccc1` [phenethyl caffeate]?
**A.** Length of the formed vessel network (Total Tube Length, TL, n = 8) ([2]; 50 μM): 332 ± 24; Length of the formed vessel network (Total Tube Length, TL, n = 8) ([2]; 100 μM): 314 ± 27; effect on tumor angiogenesis mediated by pericytes [2]: no inhibitory effect
